Data as given in paper PMC7932537, “Quantitative profiling of protease specificity” (PLoS Computational Biology, 2021).

How the values were obtained:
MMP-9 = MMP-9 (Homo sapiens, UniProt P14780); assay: K(obs) of individual phage substrates (set of 1369); assay type: biochemical; conditions: MMP9, individual phage substrates, set of 1369 peptides
MMP-2 [1] = molecular target: T1, MMP-2 (Homo sapiens, UniProt P08253); assay: as above; assay type: biochemical; conditions: MMP2
T1 sequence (P08253 110-660): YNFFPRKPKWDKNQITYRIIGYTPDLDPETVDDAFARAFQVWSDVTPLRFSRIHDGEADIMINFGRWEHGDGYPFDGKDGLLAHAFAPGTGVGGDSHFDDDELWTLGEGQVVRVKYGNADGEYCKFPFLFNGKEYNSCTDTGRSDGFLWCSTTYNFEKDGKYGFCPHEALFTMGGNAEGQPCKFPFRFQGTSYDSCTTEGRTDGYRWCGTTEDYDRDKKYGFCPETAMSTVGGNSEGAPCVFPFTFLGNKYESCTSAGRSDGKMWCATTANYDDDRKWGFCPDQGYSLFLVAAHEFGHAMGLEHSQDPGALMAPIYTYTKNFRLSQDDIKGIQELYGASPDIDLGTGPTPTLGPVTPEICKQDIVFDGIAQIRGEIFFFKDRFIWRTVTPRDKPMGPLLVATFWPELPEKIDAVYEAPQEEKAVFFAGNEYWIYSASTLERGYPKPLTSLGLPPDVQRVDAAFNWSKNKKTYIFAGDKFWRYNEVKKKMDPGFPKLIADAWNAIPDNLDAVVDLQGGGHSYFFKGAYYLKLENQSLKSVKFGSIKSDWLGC

MMP-2 [2] = assay: Substrate phage display with NGS: relative probability (RP) of P3-P1' tetramer clusters; assay type: biochemical, human; conditions: MMP2 - no binning, redundant tetramers have been averaged out
[3] = '-' marks the cleavage position (P1-P1')
[4] = individual phage substrates, set of 1369 peptides, cleavage position marked by '-' in the sequence
[5] = dash in sequence marks cleavage position
[6] = individual phage substrate from the set of 1369 peptides, cleavage position marked by the dash in the sequence
[7] = average relative probability of the P3-P1' tetramer

MMP-9, sequence (P14780 94-707): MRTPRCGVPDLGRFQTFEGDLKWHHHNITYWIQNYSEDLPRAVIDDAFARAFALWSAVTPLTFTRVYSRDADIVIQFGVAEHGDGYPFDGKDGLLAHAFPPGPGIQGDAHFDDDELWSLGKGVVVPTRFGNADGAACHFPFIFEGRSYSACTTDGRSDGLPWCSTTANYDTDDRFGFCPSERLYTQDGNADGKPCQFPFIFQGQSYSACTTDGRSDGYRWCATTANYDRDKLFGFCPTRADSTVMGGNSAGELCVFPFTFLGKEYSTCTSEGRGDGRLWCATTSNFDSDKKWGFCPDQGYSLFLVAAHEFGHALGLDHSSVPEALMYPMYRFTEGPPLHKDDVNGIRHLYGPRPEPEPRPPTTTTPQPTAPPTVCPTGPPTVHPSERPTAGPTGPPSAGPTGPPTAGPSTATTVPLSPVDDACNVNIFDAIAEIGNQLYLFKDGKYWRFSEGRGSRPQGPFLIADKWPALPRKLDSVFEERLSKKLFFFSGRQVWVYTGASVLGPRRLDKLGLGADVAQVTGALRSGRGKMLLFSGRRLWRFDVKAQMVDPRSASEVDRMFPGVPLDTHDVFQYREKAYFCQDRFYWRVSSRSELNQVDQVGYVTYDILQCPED

Row | Substance | Kobs (MMP-9; [3]) [M⁻¹ s⁻¹] | Kobs (MMP-2 [1]; [4]) [M⁻¹ s⁻¹] | Kobs (MMP-9; [5]) [M⁻¹ s⁻¹] | Kobs (MMP-2 [1]; [6]) [M⁻¹ s⁻¹] | further results
1 | AIYRS-MTASG | 2916.17 | 3344.37 |  |  | 
2 | ANAMN-LTASG | 2761.81 | 1513.13 |  |  | 
3 | APVYA-LTASG | 12792.1 | 6131.32 |  |  | 
4 | ATASF-LTASG | 27.918 | 5889.62 |  |  | 
5 | CCAMG-LTASG | 4470.66 | 2218.08 |  |  | 
6 | DRIRH-LTASG | 3964.21 | 6688.74 |  |  | 
7 | DVAFH-LTASG | 1283.43 | 1925.41 |  |  | 
8 | EAVGN-LTASG |  |  | 585.336 | 12792.1 | 
9 | EHNLP-LTASG | 0 | 799.117 |  |  | 
10 | EPIYN-LTASG | 2761.81 | 619.843 |  |  | 
11 | EQLAN-MTASG | 386.839 | 7386.83 |  |  | 
12 | ERPGW-LTASG | 3438.54 | 7386.83 |  |  | 
13 | ESAQM-ITASG | 0 | 142.481 |  |  | 
14 | ESPSF-LTASG |  |  | 3741.87 | 12792.1 | 
15 | EVSQH-LTASG | 551.253 | 690.17 |  |  | 
16 | EVTMW-LTASG | 951.362 | 551.253 |  |  | 
17 | FHIAH-LTASG | 3850.82 | 12792.1 |  |  | 
18 | FIARA-LTASG | 12792.1 | 12792.1 |  |  | 
19 | FTVHM-LTASG |  |  | 1513.13 | 1418.96 | 
20 | GAAWG-LNTAS |  |  | 836.403 | 201.585 | 
21 | GAPAF-LKTAS | 10866.7 | 12792.1 |  |  | 
22 | GCAQE-LTTAS |  |  | 27.918 | 113.394 | 
23 | GEIAS-LSTAS |  |  | 84.609 | 7386.83 | 
24 | GEVWR-LHTAS |  |  | 0 | 56.119 | 

Row | Substance | Kobs (MMP-9; [3]) [M⁻¹ s⁻¹] | Kobs (MMP-2 [1]; [4]) [M⁻¹ s⁻¹] | Kobs (MMP-9; [5]) [M⁻¹ s⁻¹] | Kobs (MMP-2 [1]; [6]) [M⁻¹ s⁻¹] | further results
25 | GFAIS-MVTAS | 84.609 | 113.394 |  |  | 
26 | GGASG-LMTAS | 84.609 | 451.441 |  |  | 
27 | GGLGM-MLTAS | 0 | 836.403 |  |  | 
28 | GGSGA-LHRPG |  |  | 0 | 1071.29 | 
29 | GGSGA-LQVPT | 56.119 | 0 |  |  | 
30 | GGSGA-LTMPL | 171.876 | 0 |  |  | 
31 | GGSGA-YTMVA |  |  | 551.253 | 726.013 | 
32 | GGSGF-LMSWM | 1112.44 | 12792.1 |  |  | 
33 | GGSGF-LVRSL | 10866.7 | 9740.44 |  |  | 
34 | GGSGN-LIYWN | 142.481 | 231.616 |  |  | 
35 | GGSGN-LVRVR |  |  | 0 | 142.481 | 
36 | GGSGR-LNMRL | 0 | 0 |  |  | 
37 | GGSGR-LRLAI |  |  | 0 | 0 | 
38 | GGSGR-LTLKW |  |  | 0 | 0 | 
39 | GGSGR-LVMTY |  |  | 261.974 | 142.481 | 
40 | GGSGR-LVVRL | 0 | 113.394 |  |  | 
41 | GGSGS-LNQRL |  |  | 0 | 585.336 | 
42 | GGSGS-LTFNT |  |  | 0 | 0 | 
43 | GHAHH-LYTAS |  |  | 201.585 | 171.876 | 
44 | GHLAS-QRTAS | 0 | 1870.4 |  |  | 
45 | YSHL |  |  |  |  | avg_RP (MMP-2 [2]; average relative probability (RP) of the P3-P1' tetramer): 14.1084
46 | YSNL |  |  |  |  | avg_RP (MMP-2 [2]; [7]): 25.2832
47 | YYGL |  |  |  |  | avg_RP (MMP-2 [2]; [7]): 0.142

Continued, in another order:

Row | Kobs (MMP-9; [3]) [M⁻¹ s⁻¹] | Kobs (MMP-2 [1]; [4]) [M⁻¹ s⁻¹] | Kobs (MMP-9; [5]) [M⁻¹ s⁻¹] | Kobs (MMP-2 [1]; [6]) [M⁻¹ s⁻¹] | Substance | further results
48 | 0 | 0 |  |  | AGLDL-LTASG | 
49 |  |  | 2996.69 | 7015.91 | AMAHS-LTASG | 
50 |  |  | 912.511 | 912.511 | ARAQH-ITASG | 
51 |  |  | 0 | 84.609 | ARVGV-LTASG | 
52 | 2837.92 | 1071.29 |  |  | AVTYA-LTASG | 
53 |  |  | 386.839 | 551.253 | CCSLA-LTASG | 
54 |  |  | 0 | 6396.07 | CLLAS-LTASG | 
55 |  |  | 8321.48 | 5667.28 | DAPYF-LTASG | 
56 | 2409.72 | 5889.62 |  |  | DILRH-LTASG | 
57 |  |  | 355.093 | 619.843 | DLPHC-LTASG | 
58 |  |  | 3438.54 | 4082.43 | DYARA-MTASG | 
59 | 27.918 | 0 |  |  | EKVML-MTASG | 
60 |  |  | 1373.05 | 1981.53 | ELAWH-LTASG | 
61 | 231.616 | 951.362 |  |  | ELPNF-LTASG | 
62 | 0 | 12792.1 |  |  | ELYAS-LTASG | 
63 |  |  | 3344.37 | 1465.65 | ERIWA-LTASG | 
64 |  |  | 231.616 | 2837.92 | ERLLH-LTASG | 
65 | 12792.1 | 5667.28 |  |  | FAAYS-LTASG | 
66 | 84.609 | 12792.1 |  |  | FMMGN-MTASG | 

Row | Kobs (MMP-9; [3]) [M⁻¹ s⁻¹] | Kobs (MMP-2 [1]; [4]) [M⁻¹ s⁻¹] | Kobs (MMP-9; [5]) [M⁻¹ s⁻¹] | Kobs (MMP-2 [1]; [6]) [M⁻¹ s⁻¹] | Substance | further results
67 |  |  | 0 | 7815.03 | FMYSH-LTASG | 
68 |  |  | 261.974 | 323.705 | FRVEP-LTASG | 
69 | 10866.7 | 12792.1 |  |  | FTPLN-MTASG | 
70 | 0 | 0 |  |  | GALDW-MSTAS | 
71 |  |  | 323.705 | 142.481 | GAPDQ-LSTAS | 
72 | 12792.1 | 12792.1 |  |  | GAPSS-LRTAS | 
73 | 2837.92 | 6131.32 |  |  | GCLMA-LTTAS | 
74 |  |  | 261.974 | 231.616 | GDVRH-IFTAS | 
75 |  |  | 355.093 | 292.668 | GEAWH-LFTAS | 
76 |  |  | 201.585 | 56.119 | GFAKH-LLTAS | 
77 |  |  | 0 | 292.668 | GFHRS-IRTAS | 
78 |  |  | 0 | 2687.73 | GGHQW-LRTAS | 
79 | 0 | 874.197 |  |  | GGSGA-LIAND | 
80 | 0 | 113.394 |  |  | GGSGA-LQRLP | 
81 |  |  | 292.668 | 201.585 | GGSGA-LREKV | 
82 | 0 | 231.616 |  |  | GGSGA-LRVQL | 
83 |  |  | 0 | 4613.14 | GGSGA-LTSRF | 
84 | 0 | 56.119 |  |  | GGSGE-LRLSN | 
85 |  |  | 0 | 1327.88 | GGSGF-LVAKA | 

Row | Kobs (MMP-9; [3]) [M⁻¹ s⁻¹] | Kobs (MMP-2 [1]; [4]) [M⁻¹ s⁻¹] | Kobs (MMP-9; [5]) [M⁻¹ s⁻¹] | Kobs (MMP-2 [1]; [6]) [M⁻¹ s⁻¹] | Substance | further results
86 | 0 | 0 |  |  | GGSGM-LLMKQ | 
87 |  |  | 0 | 451.441 | GGSGN-LTFLA | 
88 |  |  | 2218.08 | 1154.21 | GGSGP-LHQTK | 
89 | 517.582 | 3964.21 |  |  | GGSGP-LMLPF | 
90 |  |  | 0 | 1816.46 | GGSGP-LRARL | 
91 |  |  | 762.325 | 4470.66 | GGSGQ-LFNVG | 
92 |  |  | 0 | 619.843 | GGSGQ-LLATK | 
93 | 0 | 0 |  |  | GGSGQ-LLLRN | 
94 |  |  | 355.093 | 355.093 | GGSGQ-LRREY | 
95 |  |  | 690.17 | 551.253 | GGSGR-LKWNL | 
96 | 0 | 8321.48 |  |  | GGSGR-LLQFL | 
97 |  |  | 0 | 0 | GGSGR-LMYER | 
98 | 0 | 0 |  |  | GGSGR-LVLRV | 
99 | 0 | 0 |  |  | GGSGS-LRLFE | 
100 |  |  | 0 | 0 | GGSGS-LSVWK | 
101 | 56.119 | 0 |  |  | GHPWL-QRTAS | 
102 | 990.764 | 0 |  |  | GIAMN-ILTAS | 
103 | 0 | 690.17 |  |  | GISMY-LTASG | 
